# Where two headings read alike, the source gives them in different places.
# Molecular target: full-length human PRMT6 (Flag- and His-tagged) (Homo sapiens, UniProt Q96LA8)
# Test: PRMT6 Biochemical Assay (3H-SAM Flashplate, peptide substrate)
# Details: read-out: Biochemical IC50 PRMT6
# Text: General Materials. S-adenosylmethionine (SAM), S-adenosylhomocysteine (SAH), bicine, Tween20, dimethylsulfoxide (DMSO), bovine skin gelatin (BSG), sodium butyrate and Tris(2-carboxyethyl)phosphine hydrochloride solution (TCEP) were purchased from Sigma-Aldrich at the highest level of purity possible. ^3H-SAM was purchase from American Radiolabeled Chemicals with a specific activity of 80 Ci/mmol. 384-well streptavidin Flashplates were purchased from PerkinElmer.
# Substrates. Peptide representative of human histone H4 residues 36-50 was synthesized with an N-terminal linker-affinity tag motif and a C-terminal amide cap by 21st Century Biochemicals. The peptide was purified by high-performance liquid chromatography (HPLC) to greater than 95% purity and confirmed by liquid chromatography mass spectrometry (LC-MS). The sequence was Biot-Ahx-[…]-amide and contained a monomethylated lysine at position 44 (SEQ ID NO.:5).
# Molecular Biology: Full-length human PRMT6 (NM_018137.2) transcript clone was amplified from an HEK 293 cDNA library, incorporating a flanking 5′ sequence encoding a FLAG tag ([…]) (SEQ ID NO.:6) fused directly to Ser 2 of PRMT6 and a 3′ sequence encoding a hexa His sequence (HHHHHH) (SEQ ID NO.:17) fused directly to Asp 375. The amplified gene was subcloned into pFastBacMam (Viva Biotech).
# Protein Expression. Recombinant baculovirus were generated according to Bac-to-Bac kit instructions (Life Technologies). […] Infections were carried out at 37° C. for 48 hours, harvested by centrifugation, and stored at −80° C. for purification.
# Protein Purification. […] Column was washed with 20 mM imidazole in the same buffer and Flag-PRMT6-His was eluted with 150 mM imidazole. Pooled fractions were dialysed against buffer N^1-A and further purified by anti-flag M2 affinity chromatography. Flag-PRMT6-His was eluted with 200 ug/ml FLAG peptide in the same buffer. Pooled fractions were dialysed in 20 mM Tris, 150 mM NaCl, 10% glycerol and 5 mM β-mercaptoethanol, pH 7.8. The purity of recovered protein was 95%.
# General Procedure for PRMT6 Enzyme Assays on Peptide Substrates. The assays were all performed in a buffer consisting of 20 mM Bicine (pH=7.6), 1 mM TCEP, 0.005% BSG, and 0.002% Tween 20, prepared on the day of use. Compounds in 100% DMSO (1 ul) were spotted into a polypropylene 384-well V-bottom plates (Greiner) using a Platemate Plus outfitted with a 384-channel head (Thermo Scientific). DMSO (1 ul) was added to Columns 11, 12, 23, 24, rows A-H for the maximum signal control and 1 ul of SAH, a known product and inhibitor of PRMT6, was added to columns 11, 12, 23, 24, rows I-P for the minimum signal control. A cocktail (40 ul) containing the PRMT6 enzyme was added by Multidrop Combi (Thermo-Fisher). The compounds were allowed to incubate with PRMT6 for 30 min at room temperature, then a cocktail (10 ul) containing SAM and peptide was added to initiate the reaction (final volume=51 ul). The final concentrations of the components were as follows: PRMT6 was 1 nM, ^3H-SAM was 200 nM, non-radiolabeled SAM was 250 nM, peptide was 75 nM, SAH in the minimum signal control wells was 1 mM, and the DMSO concentration was 2%. The assays were stopped by the addition of non-radiolabeled SAM (10 ul) to a final concentration of 400 uM, which dilutes the ^3H-SAM to a level where its incorporation into the peptide substrate is no longer detectable. 50 ul of the reaction in the 384-well polypropylene plate was then transferred to a 384-well Flashplate and the biotinylated peptides were allowed to bind to the streptavidin surface for at least 1 hour before being washed once with 0.1% Tween20 in a Biotek ELx405 plate washer. The plates were then read in a PerkinElmer TopCount plate reader to measure the quantity of ^3H-labeled peptide bound to the Flashplate surface, measured as disintegrations per minute (dpm) or alternatively, referred to as counts per minute (cpm). […]
# [1] = single experiment or average of multiple experiments
# Chain of full-length human PRMT6 (Flag- and His-tagged) (Q96LA8 with tags, fused parts or gaps): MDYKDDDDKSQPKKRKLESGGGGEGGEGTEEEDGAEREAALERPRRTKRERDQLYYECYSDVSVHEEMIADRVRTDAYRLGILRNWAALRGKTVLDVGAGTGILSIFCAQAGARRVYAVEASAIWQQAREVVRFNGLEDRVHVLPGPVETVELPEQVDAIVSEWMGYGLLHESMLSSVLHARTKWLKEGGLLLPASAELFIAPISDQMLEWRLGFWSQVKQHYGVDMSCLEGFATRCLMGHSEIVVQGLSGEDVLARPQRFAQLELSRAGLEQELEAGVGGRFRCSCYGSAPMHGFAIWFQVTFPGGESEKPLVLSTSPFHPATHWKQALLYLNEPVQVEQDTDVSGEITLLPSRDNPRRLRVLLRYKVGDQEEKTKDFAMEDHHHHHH
smiles,measurement,setting,value
CNCCN(C)Cc1c[nH]nc1C1CCC(OCCOc2ccccc2)CC1 (stereo not shown) [Compound 136],IC50,,< 100 nM
same,IC50,[1],7.2 nM
CNCCN(C)Cc1c[nH]nc1C1CCC2(CC1)CCC(F)(F)CC2 [Compound 130],IC50,,< 100 nM
same,IC50,[1],4.2 nM
CNCCN(C)Cc1c[nH]nc1C1CCC2(CC1)CN(C)C(=O)N2CC(C)C (stereo not shown) [Compound 151],IC50,,< 100 nM
same,IC50,[1],47.7 nM
CNCCN(C)Cc1c[nH]nc1C1CCC2(CC1)OCCO2 [Compound 177],IC50,,101 to 1000 nM
same,IC50,[1],113 nM
CNCCN(C)Cc1c[nH]nc1C1CCC(=O)N(CCC(C)C)C1 (stereo not shown) [Compound 117],IC50,,< 100 nM
same,IC50,[1],96.2 nM
CNCCN(C)Cc1c[nH]nc1C1CCC(N(CC(C)C)C(=O)CC2CCOCC2)CC1 (stereo not shown) [Compound 114],IC50,,< 100 nM
same,IC50,[1],92.6 nM
CCN1CC2(CCC(c3n[nH]cc3CN(C)CCNC)CC2)N(C)C1=O (stereo not shown) [Compound 154],IC50,,< 100 nM
same,IC50,[1],44.3 nM
CNCCN(C)Cc1c[nH]nc1C1CCC(CC(C)C)CC1 (stereo not shown) [Compound 169],IC50,,< 100 nM
same,IC50,[1],17.8 nM
CNCCN(C)Cc1c[nH]nc1C1CC(C)OC(C)C1 (stereo not shown) [Compound 179],IC50,,< 100 nM
same,IC50,[1],62.9 nM
CNCCN(C)Cc1c[nH]nc1[C@H]1CC[C@@]2(CCN(Cc3ccc(F)cc3)C2=O)CC1 [Compound 125],IC50,,< 100 nM
same,IC50,[1],13.1 nM
"CNCCN(C)Cc1c[nH]nc1[C@H]1CC[C@@]2(CCOC2(C)C)CC1 [Compound 106, Methyl [2-(methylamino)ethyl]([3-[(5R,8R)-1,1-dimethyl-2-oxaspiro[4.5]decan-8-yl]-1H-pyrazol-4-yl]methyl)amine]",IC50,,< 100 nM
same,IC50,[1],13.5 nM
CNCCN(C)Cc1c[nH]nc1C1CCC(OCC(C)C)CC1 (stereo not shown) [Compound 153],IC50,,< 100 nM
same,IC50,[1],28.4 nM
CNCCN(C)Cc1c[nH]nc1[C@H]1CC[C@@]2(CCN(Cc3ccccc3)C2=O)CC1 [Compound 127],IC50,,< 100 nM
same,IC50,[1],22.3 nM
CNCCN(C)Cc1c[nH]nc1C1CCC2(CC1)CCN(CCC(C)C)C2=O (stereo not shown) [Compound 163],IC50,,< 100 nM
same,IC50,[1],65.7 nM
CNCCN(C)Cc1c[nH]nc1[C@H]1CC[C@@H](COC)CC1 [Compound 166],IC50,,< 100 nM
same,IC50,[1],48.6 nM
CNCCN(C)Cc1c[nH]nc1[C@H]1CC[C@@]2(CCN(Cc3ccc(OCCOC)cc3)C2=O)CC1 [Compound 120],IC50,,< 100 nM
same,IC50,[1],42.8 nM
CNCCN(C)Cc1c[nH]nc1C1CCC2(CC1)CC(=O)N(C)C2 (stereo not shown) [Compound 157],IC50,,< 100 nM
same,IC50,[1],47.9 nM
CNCCN(C)Cc1c[nH]nc1[C@H]1CC[C@@]2(CCN(Cc3cc(F)cc(F)c3)C2=O)CC1 [Compound 126],IC50,,< 100 nM
same,IC50,[1],9.4 nM
CNCCN(C)Cc1c[nH]nc1C1=CCC(CCOC)(CCOC)CC1 [Compound 173],IC50,,< 100 nM
same,IC50,[1],89.9 nM
CNCCN(C)Cc1c[nH]nc1C1CC(OCC(C)C)CC(OCC(C)C)C1 (stereo not shown) [Compound 122],IC50,,> 10000 nM
same,IC50,[1],> 10000 nM
CNCCN(C)Cc1c[nH]nc1[C@H]1CC[C@]2(CCN(CC(C)C)C2=O)CC1 [Compound 124],IC50,,< 100 nM
same,IC50,[1],26.2 nM
CCOCC1CC(COCC)CC(c2n[nH]cc2CN(C)CCNC)C1 (stereo not shown) [Compound 119],IC50,,1010 to 3000 nM
same,IC50,[1],2750 nM
"CNCCN(C)Cc1c[nH]nc1[C@H]1CC[C@@H](O)C2(CCCCC2)C1 (single isomer, unassigned) [Compound 183]",IC50,,< 100 nM
same,IC50,[1],87.7 nM
CNCCN(C)Cc1c[nH]nc1C1CCCC(COCCOC)C1 (stereo not shown) [Compound 112],IC50,,< 100 nM
same,IC50,[1],57.4 nM
"CNCCN(C)Cc1c[nH]nc1[C@H]1CC[C@H](O)C2(CCCCC2)C1 (racemic) [Compound 184, (1S,4S)-4-[4-({methyl[2-(methylamino)ethyl]amino}methyl)-1H-pyrazol-3-yl] spiro[5.5]undecan-1-ol]",IC50,,101 to 1000 nM
same,IC50,[1],101 nM
CNCCN(C)Cc1c[nH]nc1C1CC(OC(C)C)CC(OC(C)C)C1 (stereo not shown) [Compound 118],IC50,,> 10000 nM
same,IC50,[1],> 10000 nM
CNCCN(C)Cc1c[nH]nc1[C@H]1CC[C@@]2(CC1)CC(=O)N(CC(C)C)C2 [Compound 156],IC50,,< 100 nM
same,IC50,[1],57.8 nM
CNCCN(C)Cc1c[nH]nc1[C@H]1CC[C@]2(CC1)CC(=O)N(CC(C)C)C2 [Compound 155],IC50,,< 100 nM
same,IC50,[1],60.8 nM
CNCCN(C)Cc1c[nH]nc1C1CCC2(CCOCC2)CC1 [Compound 178],IC50,,< 100 nM
same,IC50,[1],15.7 nM
CNCCN(C)Cc1c[nH]nc1C1CCC2(CC1)CC2 [Compound 144],IC50,,< 100 nM
same,IC50,[1],35.6 nM
CNCCN(C)Cc1c[nH]nc1C1CCC2(CC1)OC(C)CC(C)O2 (stereo not shown) [Compound 121],IC50,,< 100 nM
same,IC50,[1],97.7 nM
CNCCN(C)Cc1c[nH]nc1C1CC(COC)CC(COC)C1 (stereo not shown) [Compound 138],IC50,,1010 to 3000 nM
same,IC50,[1],1210 nM
CNCCN(C)Cc1c[nH]nc1C1CCC2(CC1)OCCCO2 [Compound 160],IC50,,101 to 1000 nM
same,IC50,[1],112 nM
CNCCN(C)Cc1c[nH]nc1[C@H]1CC[C@@]2(CCN(CC(C)C)C2=O)CC1 [Compound 129],IC50,,< 100 nM
same,IC50,[1],29.7 nM
CNCCN(C)Cc1c[nH]nc1[C@H]1CC[C@H](OCCOc2ccccc2)CC1 [Compound 187],IC50,,101 to 1000 nM
same,IC50,[1],261 nM
CNCCN(C)Cc1c[nH]nc1C1CCC(CCOC)(CCOC)CC1 [Compound 174],IC50,,< 100 nM
same,IC50,[1],84.4 nM
CCOC1CC(OCC)CC2(CCC(c3n[nH]cc3CN(C)CCNC)CC2)C1 (stereo not shown) [Compound 159],IC50,,< 100 nM
same,IC50,[1],53.8 nM
CNCCN(C)Cc1c[nH]nc1C1CCC2(CC1)NC(=O)NC2=O (stereo not shown) [Compound 175],IC50,,< 100 nM
same,IC50,[1],37.6 nM
CCOC1CC(OCC)CC(c2n[nH]cc2CN(C)CCNC)C1 (stereo not shown) [Compound 132],IC50,,3010 to 10000 nM
same,IC50,[1],5500 nM
CNCCN(C)Cc1c[nH]nc1C1CCC2(CC1)CCN(C)C2=O (stereo not shown) [Compound 152],IC50,,< 100 nM
same,IC50,[1],35.2 nM
CNCCN(C)Cc1c[nH]nc1[C@H]1CC[C@@]2(CCCO2)CC1 [Compound 143],IC50,,< 100 nM
same,IC50,[1],22 nM
CNCCN(C)Cc1c[nH]nc1C1CCC2(CC1)OCC(C(C)C)CO2 (stereo not shown) [Compound 150],IC50,,< 100 nM
same,IC50,[1],55.6 nM
CNCCN(C)Cc1c[nH]nc1[C@H]1CC[C@]2(CCN(Cc3ccc(OCCOC)cc3)C2=O)CC1 [Compound 111],IC50,,< 100 nM
same,IC50,[1],45.5 nM
CNCCN(C)Cc1c[nH]nc1C1CCC2(CC1)CC(=O)N(CCC(C)C)C2 (stereo not shown) [Compound 165],IC50,,101 to 1000 nM
same,IC50,[1],120 nM
"CNCCN(C)Cc1c[nH]nc1C1CCC(O)C2(CCCC2)C1 (stereo not shown) [Compound 182, 9-[4-({methyl[2-(methylamino)ethyl]amino}methyl)-1H-pyrazol-3-yl]spiro[4.5]decan-6-ol]",IC50,,< 100 nM
same,IC50,[1],73.5 nM
CCOC1CC2(CCC(c3n[nH]cc3CN(C)CCNC)CC2)CC1OCC (stereo not shown) [Compound 168],IC50,,< 100 nM
same,IC50,[1],45.1 nM
CNCCN(C)Cc1c[nH]nc1[C@H]1CC[C@H](OC2CCCCC2)CC1 [Compound 139],IC50,,< 100 nM
same,IC50,[1],22.6 nM
CNCCN(C)Cc1c[nH]nc1[C@H]1CC[C@@H](N(CC2CCOCC2)C(=O)CC(C)C)CC1 [Compound 107],IC50,,101 to 1000 nM
same,IC50,[1],130 nM
CNCCN(C)Cc1c[nH]nc1[C@H]1CC[C@H](COC)CC1 [Compound 167],IC50,,< 100 nM
same,IC50,[1],31.5 nM
CNCCN(C)Cc1c[nH]nc1C1CCC(=O)N(CCc2ccccc2)C1 (stereo not shown) [Compound 110],IC50,,< 100 nM
same,IC50,[1],29.4 nM

# From patent US11512053B2, “Arginine methyltransferase inhibitors and uses thereof” (priority 2013, dated 2022)
